This note sets out measurements from ChEMBL document CHEMBL1143532 (Bioorg Med Chem Lett, 2005).

Some results are limits rather than exact numbers.

For orientation: Ki means the dissociation constant of the complex between target and ligand, obtained from inhibition or displacement. In general, EC50 refers to the midpoint of the concentration-response curve. High values mean a less potent agent, low ones a more potent agent.

Test [1] has as its target T1, Neuronal acetylcholine receptor subunit alpha-7 (Rattus norvegicus, UniProt Q05941). The test can be described thus: Inhibitory constant against [3H]methyllycaconitine binding towards Nicotinic acetylcholine receptor alpha-7 of rat brain hippocampus. The class given is tissue-based.
Test [2] deals with Neuronal acetylcholine receptor; alpha4/beta2 (Homo sapiens, UniProt P17787+P43681). The experiment in a line: Binding affinity towards Nicotinic acetylcholine receptor alpha4-beta2; Not significant. The class given is protein complex.
In test [3] the target is T1, Neuronal acetylcholine receptor subunit alpha-7. The test can be described thus: Potency against rat nicotinic acetylcholine alpha-7 subunit expressed in Xenopus oocytes as current activation. The class given is functional, cell-based, Oocyte.
Test [4] concerns the target Neuronal acetylcholine receptor subunit alpha-7 (Rattus norvegicus) (UniProt Q05941). The test can be described thus: Intrinsic activity against rat nicotinic acetylcholine alpha-7 subunit expressed in Xenopus oocytes as current activation. The class given is functional, cell-based. As to conditions: Oocyte.

Sequence of Neuronal acetylcholine receptor; alpha4/beta2 (P17787 whole entry): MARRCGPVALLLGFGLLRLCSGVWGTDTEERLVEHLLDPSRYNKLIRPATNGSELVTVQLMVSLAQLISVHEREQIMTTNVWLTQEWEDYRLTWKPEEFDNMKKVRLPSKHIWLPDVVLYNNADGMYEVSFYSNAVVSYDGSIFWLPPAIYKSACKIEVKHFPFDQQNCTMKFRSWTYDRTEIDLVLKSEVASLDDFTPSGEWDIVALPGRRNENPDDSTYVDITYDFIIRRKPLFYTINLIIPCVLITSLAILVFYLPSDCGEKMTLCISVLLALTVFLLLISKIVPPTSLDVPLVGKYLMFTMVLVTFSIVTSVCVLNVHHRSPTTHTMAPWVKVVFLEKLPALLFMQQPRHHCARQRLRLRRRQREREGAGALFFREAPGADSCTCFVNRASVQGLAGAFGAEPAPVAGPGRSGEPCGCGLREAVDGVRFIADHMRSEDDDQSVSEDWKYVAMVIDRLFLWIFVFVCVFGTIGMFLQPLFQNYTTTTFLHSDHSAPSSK
Sequence of Neuronal acetylcholine receptor; alpha4/beta2 (P43681 whole entry): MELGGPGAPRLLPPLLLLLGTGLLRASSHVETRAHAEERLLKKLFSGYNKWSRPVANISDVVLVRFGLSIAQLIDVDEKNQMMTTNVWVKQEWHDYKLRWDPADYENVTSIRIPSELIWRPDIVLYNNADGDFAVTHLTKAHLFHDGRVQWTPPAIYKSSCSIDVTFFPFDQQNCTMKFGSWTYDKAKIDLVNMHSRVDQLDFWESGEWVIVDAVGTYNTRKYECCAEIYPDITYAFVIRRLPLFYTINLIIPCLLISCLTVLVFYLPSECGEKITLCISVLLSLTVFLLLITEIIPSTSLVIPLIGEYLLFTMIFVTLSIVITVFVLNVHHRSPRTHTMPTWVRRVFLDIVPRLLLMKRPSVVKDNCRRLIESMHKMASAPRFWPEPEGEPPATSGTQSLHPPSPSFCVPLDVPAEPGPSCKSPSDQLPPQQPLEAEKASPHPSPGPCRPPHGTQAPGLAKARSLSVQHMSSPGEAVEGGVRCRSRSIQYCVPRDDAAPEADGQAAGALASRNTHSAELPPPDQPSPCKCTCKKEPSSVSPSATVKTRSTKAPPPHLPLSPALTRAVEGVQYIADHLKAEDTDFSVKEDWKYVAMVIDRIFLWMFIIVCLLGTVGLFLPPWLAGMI
T1 sequence (Q05941 whole entry): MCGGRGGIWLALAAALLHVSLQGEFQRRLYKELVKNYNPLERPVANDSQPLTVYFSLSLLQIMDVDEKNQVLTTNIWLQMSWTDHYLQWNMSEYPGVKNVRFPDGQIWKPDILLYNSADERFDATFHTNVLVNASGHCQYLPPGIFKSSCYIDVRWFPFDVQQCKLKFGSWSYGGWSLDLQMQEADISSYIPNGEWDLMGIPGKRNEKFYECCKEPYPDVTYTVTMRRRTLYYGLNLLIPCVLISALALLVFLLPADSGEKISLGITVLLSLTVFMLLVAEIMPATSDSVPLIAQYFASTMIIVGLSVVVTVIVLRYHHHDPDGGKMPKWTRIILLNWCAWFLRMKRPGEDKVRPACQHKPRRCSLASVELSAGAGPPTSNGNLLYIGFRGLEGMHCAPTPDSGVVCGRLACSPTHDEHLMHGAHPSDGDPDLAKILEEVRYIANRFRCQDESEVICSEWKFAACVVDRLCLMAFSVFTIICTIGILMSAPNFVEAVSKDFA
Sequence of Neuronal acetylcholine receptor subunit alpha-7 (Rattus norvegicus) (Q05941 whole entry): as above

As for `O=C(NCc1ccc(Br)cc1)N[C@@H]1C2CCN(CC2)[C@@H]1Cc1cccnc1`, the Ki in test [1] is 0.274 µM; in test [2], over 10 µM.

In the case of `COc1ccncc1C[C@@H]1[C@H](OC(=O)Nc2ccc(Br)cc2)C2CCN1CC2`, the inhibition constant (Ki) in test [1] was 0.029 µM; in test [2] it was over 10 µM.

With `Cn1cccc1C(=O)N[C@@H]1C2CCN(CC2)[C@@H]1Cc1cccnc1`, the inhibition constant Ki in test [1] was 0.155 µM; in test [2], over 10 µM.

For the compound `O=C(N[C@@H]1C2CCN(CC2)[C@@H]1Cc1cccnc1)c1ccc2ccccc2c1O`, the Ki in test [1] was 0.001 µM; in test [2] it was over 10 µM.

`O=C(NC1CC1c1ccccc1)N[C@@H]1C2CCN(CC2)[C@@H]1Cc1cccnc1` (some centres not stated) displayed an inhibition constant (Ki) in test [2] of over 10 µM.

On to `O=C(N[C@@H]1C2CCN(CC2)[C@@H]1Cc1cccnc1)c1cccc(Br)c1`, for which the Ki was 0.064 µM in test [1] and over 10 µM in test [2].

Regarding `O=C(Nc1ccc(Cl)c(Cl)c1)N[C@@H]1C2CCN(CC2)[C@@H]1Cc1cccnc1`, the results for the Ki in test [1] and in test [2] were 0.034 µM and over 10 µM, respectively.

As to `COc1cccc(NC(=O)N[C@@H]2C3CCN(CC3)[C@@H]2Cc2cccnc2)c1`, the Ki was 0.043 µM in test [1] and over 10 µM in test [2].

With `COc1ccc(NC(=O)O[C@@H]2C3CCN(CC3)[C@@H]2Cc2cccnc2)cc1`, the Ki in test [1] was 0.005 µM; in test [2] it was over 10 µM. A half-maximal response in test [3] (EC50) required 0.3 µM. Also, in test [4], the Imax worked out at 0.19.

As to `O=C(Nc1cccc(Br)c1)N[C@@H]1C2CCN(CC2)[C@@H]1Cc1cccnc1`, the Ki in test [1] was 0.052 µM; in test [2], over 10 µM.

As for `O=C(NCc1ccccc1)O[C@@H]1C2CCN(CC2)[C@@H]1Cc1cccnc1`, the Ki is 0.67 µM in test [1] and over 10 µM in test [2].

In the case of `O=C(Nc1ccc(Br)cc1)O[C@@H]1C2CCN(CC2)[C@@H]1Cn1ccnc1`, the inhibition constant Ki in test [1] was 0.01 µM; in test [2] it was over 10 µM.

Regarding `O=C(Nc1ccc(Br)cc1)O[C@@H]1C2CCN(CC2)[C@@H]1Cc1ccco1`, the results for the Ki in test [1] and in test [2] were 0.234 µM and over 10 µM, respectively.

Regarding `O=C(N[C@@H]1C2CCN(CC2)[C@@H]1Cc1cccnc1)c1cc2ccccc2o1`, the Imax in test [4] amounted to 1.

On to `O=S(=O)(N[C@@H]1C2CCN(CC2)[C@@H]1Cc1cccnc1)c1ccccc1`, for which the Ki in test [1] is 0.418 µM; in test [2], over 10 µM.

In the case of `N#Cc1cccc(NC(=O)N[C@@H]2C3CCN(CC3)[C@@H]2Cc2cccnc2)c1`, the Ki in test [1] was 0.17 µM; in test [2], over 10 µM.

On to `O=C(Nc1cccc(C(F)(F)F)c1)N[C@@H]1C2CCN(CC2)[C@@H]1Cc1cccnc1`, for which the Ki was 0.091 µM in test [1] and over 10 µM in test [2].

In the case of `NC(=O)Cc1ccc(S(=O)(=O)N[C@@H]2C3CCN(CC3)[C@@H]2Cc2cccnc2)cc1`, the values for the Ki in test [1] and in test [2] were 0.146 µM and over 10 µM, respectively.

Turning to `O=C(Nc1ccc(Oc2ccccc2)cc1)N[C@@H]1C2CCN(CC2)[C@@H]1Cc1cccnc1`, the figures for the Ki in test [1] and in test [2] were 0.016 µM and over 10 µM, respectively.

Turning to `O=C(Nc1ccc(F)cc1)O[C@@H]1C2CCN(CC2)[C@@H]1Cc1cccnc1`, the Ki in test [1] is 0.006 µM; in test [2], over 10 µM.

Take `CC(C)Oc1cncc(C[C@@H]2[C@H](OC(=O)Nc3ccc(Br)cc3)C3CCN2CC3)c1`: the figures for the Ki in test [1] and in test [2] were 7.02 µM and over 10 µM, respectively.

For `O=C(Nc1ccc(Br)cc1)O[C@@H]1C2CCN(CC2)[C@@H]1Cc1ccccn1`, the inhibition constant Ki in test [1] and in test [2] was over 10 µM each time.

`O=C(Nc1ccc(Sc2ccccc2)cc1)O[C@@H]1C2CCN(CC2)[C@@H]1Cc1cccnc1`: the Ki was 0.009 µM in test [1] and over 10 µM in test [2].

As to `O=C(Nc1ccccc1)N[C@@H]1C2CCN(CC2)[C@@H]1Cc1cccnc1`, the Ki in test [1] was 0.016 µM; in test [2] it was over 10 µM.

As for `O=C(Nc1ccc(Sc2ccccc2)cc1)OC1CN2CCC1CC2` (configuration not stated), the inhibition constant (Ki) in test [1] is 0.053 µM; in test [2], over 10 µM.

`COc1ccc(C[C@@H]2[C@H](OC(=O)Nc3ccc(Br)cc3)C3CCN2CC3)cc1`: the Ki in test [1] and in test [2] was over 10 µM throughout.

Consider `O=C(Nc1ccc(Br)cc1)O[C@@H]1C2CCN(CC2)[C@@H]1Cc1ccccc1`, for which the Ki was 0.838 µM in test [1] and over 10 µM in test [2].

In the case of `O=C(Nc1ccc(Br)cc1)O[C@@H]1C2CCN(CC2)[C@@H]1Cc1cnccc1Oc1ccccc1`, the inhibitory constant (Ki) in test [1] and in test [2] was over 10 µM each time.

As for `Cn1cc(C(=O)N[C@@H]2C3CCN(CC3)[C@@H]2Cc2cccnc2)c2ccccc21`, the Ki was 0.521 µM in test [1] and over 10 µM in test [2].

As to `O=S(=O)(N[C@@H]1C2CCN(CC2)[C@@H]1Cc1cccnc1)c1ccc(Br)cc1`, in test [2], the Ki is over 10 µM.

Take `O=C(Nc1ccc(-c2ccccc2)cc1)N[C@@H]1C2CCN(CC2)[C@@H]1Cc1cccnc1`: the results for the Ki in test [1] and in test [2] were 0.424 µM and over 10 µM, respectively.

For the compound `O=C(Nc1ccc(Br)cc1)O[C@@H]1C2CCN(CC2)[C@@H]1Cc1ccsc1`, the Ki in test [1] is 0.534 µM; in test [2], over 10 µM.

In the case of `C/C(=C\c1ccccc1)C(=O)N[C@@H]1C2CCN(CC2)[C@@H]1Cc1cccnc1`, the Ki in test [1] is 0.005 µM; in test [2] it was over 10 µM.

`O=C(N[C@@H]1C2CCN(CC2)[C@@H]1Cc1cccnc1)c1c[nH]c2ccccc12`: the Ki was 0.008 µM in test [1] and over 10 µM in test [2].

Consider `COc1cncc(C[C@@H]2[C@H](OC(=O)Nc3ccc(Br)cc3)C3CCN2CC3)c1`, for which the values for the Ki in test [1] and in test [2] were 0.144 µM and over 10 µM, respectively.

As for `CN(C)c1ccc(NC(=O)N[C@@H]2C3CCN(CC3)[C@@H]2Cc2cccnc2)cc1`, the Ki in test [1] is 0.038 µM; in test [2] it was over 10 µM.

`O=C(Nc1ccc(Br)cc1)N[C@@H]1C2CCN(CC2)[C@@H]1Cc1cccnc1`: the inhibition constant (Ki) was 0.009 µM in test [1] and over 10 µM in test [2].

For `O=C(Nc1ccc(F)cc1)N[C@@H]1C2CCN(CC2)[C@@H]1Cc1cccnc1`, the Ki in test [1] was 0.074 µM; in test [2], over 10 µM.

On to `O=S(=O)(Cc1ccccc1)N[C@@H]1C2CCN(CC2)[C@@H]1Cc1cccnc1`, for which the results for the Ki in test [1] and in test [2] were 8.84 µM and over 10 µM, respectively.

Turning to `O=C(NC1CC1c1ccccc1)O[C@@H]1C2CCN(CC2)[C@@H]1Cc1cccnc1` (some centres not stated), the values for the Ki in test [1] and in test [2] were 0.103 µM and over 10 µM, respectively.

As for `O=C(Nc1ccc(Br)cc1)O[C@@H]1C2CCN(CC2)[C@@H]1Cc1cncnc1`, the Ki in test [1] was 0.04 µM; in test [2], over 10 µM.

Turning to `O=C(N[C@@H]1C2CCN(CC2)[C@@H]1Cc1cccnc1)c1csc(Br)c1`, the values for the Ki in test [1] and in test [2] were 0.0004 µM and over 10 µM, respectively.

As for `C/C(=C\C(=O)N[C@@H]1C2CCN(CC2)[C@@H]1Cc1cccnc1)c1ccccc1`, the figures for the Ki in test [1] and in test [2] were 0.087 µM and over 10 µM, respectively.

Take `COc1ccc(S(=O)(=O)N[C@@H]2C3CCN(CC3)[C@@H]2Cc2cccnc2)cc1`: the figures for the Ki in test [1] and in test [2] were 8.92 µM and over 10 µM, respectively.

As for `COc1ccc(NC(=O)N[C@@H]2C3CCN(CC3)[C@@H]2Cc2cccnc2)c(OC)c1`, the Ki in test [1] is 0.031 µM; in test [2] it was over 10 µM.

Turning to `COc1ccc(NC(=O)N[C@@H]2C3CCN(CC3)[C@@H]2Cc2cccnc2)cc1`, the inhibition constant (Ki) is 0.037 µM in test [1] and over 10 µM in test [2].

For the compound `O=C(Nc1ccc(Br)cc1)O[C@@H]1C2CCN(CC2)[C@@H]1Cc1ccc(F)cc1`, the inhibition constant Ki in test [1] is 0.263 µM; in test [2], over 10 µM.

In test [2], `O=C(Nc1ccc(Br)cc1)OC1CN2CCC1CC2` (configuration not stated) had a Ki of over 10 µM.

`CN(C)c1ccc(C[C@@H]2[C@H](OC(=O)Nc3ccc(Br)cc3)C3CCN2CC3)cc1` showed an inhibition constant (Ki) in test [2] of over 10 µM.

In turn, `O=C(Nc1ccccc1)O[C@@H]1C2CCN(CC2)[C@@H]1Cc1cccnc1` showed a Ki in test [2] of over 10 µM.

On to `O=C(N[C@@H]1C2CCN(CC2)[C@@H]1Cc1cccnc1)c1ccsc1`, for which the Ki in test [1] is 0.79 µM; in test [2], over 10 µM.

In the case of `O=C(Nc1ccc(Br)cc1)O[C@@H]1C2CCN(CC2)[C@@H]1Cc1cc2ccccc2o1`, the Ki in test [1] was 8.39 µM; in test [2], over 10 µM.

Regarding `O=C(Nc1ccc(-c2ccccc2)cc1)O[C@@H]1C2CCN(CC2)[C@@H]1Cc1cccnc1`, the Ki in test [1] was 0.5 µM; in test [2] it was over 10 µM.

`CS(=O)(=O)c1ccc(C[C@@H]2[C@H](OC(=O)Nc3ccc(Br)cc3)C3CCN2CC3)cc1`: the Ki in test [1] was 6.78 µM; in test [2] it was over 10 µM.

Consider `O=C(Nc1ccc(Br)cc1)O[C@@H]1C2CCN(CC2)[C@@H]1Cc1cccnc1`, for which the Ki in test [2] was over 10 µM.

Take `CSc1ccc(NC(=O)N[C@@H]2C3CCN(CC3)[C@@H]2Cc2cccnc2)cc1`: the Ki in test [1] was 0.006 µM; in test [2], over 10 µM.

Consider `O=C(Nc1ccccc1)OC1CN2CCC1CC2` (configuration not stated), for which, in test [2], the Ki is over 10 µM.

For `COc1ccccc1NC(=O)N[C@@H]1C2CCN(CC2)[C@@H]1Cc1cccnc1`, the results for the Ki in test [1] and in test [2] were 0.03 µM and over 10 µM, respectively.

Compound `O=C(N[C@@H]1C2CCN(CC2)[C@@H]1Cc1cccnc1)c1ccc(Sc2ccccc2)cc1` gave a Ki in test [2] of over 10 µM.

For the compound `O=C(Nc1cccc(F)c1)N[C@@H]1C2CCN(CC2)[C@@H]1Cc1cccnc1`, the results for the Ki in test [1] and in test [2] were 0.006 µM and over 10 µM, respectively.

As to `O=C(Nc1ccc(Br)cc1)O[C@@H]1C2CCN(CC2)[C@@H]1Cc1cnc2ccccc2c1`, the Ki in test [1] was 10 µM; in test [2], over 10 µM.

For the compound `O=C(Nc1ccc(Oc2ccccc2)cc1)O[C@@H]1C2CCN(CC2)[C@@H]1Cc1cccnc1`, the figures for the Ki in test [1] and in test [2] were 0.05 µM and over 10 µM, respectively.
